Source: US4024224A, “14-Aminodaunomycins, their preparation and use” (priority 1974, dated 1977)
In brackets after ≈: the same amount, converted by molar mass. Read-outs that look alike come from different tables or passages of the source.

Legend:
[1] = Antitumor activity and toxicity on ascites Sarcoma 180 in CD 1 mice; type: in vivo; conditions: mouse, in vivo, ip, read-out: % Toxic Deaths
Protocol: (§1) The antitumor activity of the compounds of the invention was tested on ascites Sarcoma 180.
(§2) Three month old CD 1 mice were used. Sarcoma 180 ascites cells were inoculated intraperitoneally (10^6 cells/mouse). For use in these tests, the compounds were dissolved in distilled water or in 5% ethyl alcohol in distilled water, then diluted with Ringers solution and administered i.p. 1 day after the tumor implant (10 ml./kg. of body weight).
(§3) The toxicity of the test compounds was evaluated by macroscopic autoptic examination mainly in terms of reduction in spleen size. The comparison of the effectiveness of the test compounds is based on the maximum increase in median survival time, as compared to untreated controls, over the dose range used. The number of Long Term Survivors (LTS) refers to tumor-free mice at the end of the experiment (60 days). Solid Sarcoma 180 was implanted subcutaneously by trocar in the flank of CD 1 mice according to standard methods. The mice were treated i.v. for 5 consecutive days, starting 1 day after the tumor implant. On the 11th day the tumor volume was measured by means of a caliper and evaluated according to the formula (a^2 × b)/2, a and b being the minimum and the maximum diameters respectively.

[2] = system: ascites Sarcoma 180; test: as above; type: in vivo; conditions: for % LTS: 60 days; for LTS (Long Term Survivors after 60 days): survivors/total; for Toxic Deaths: deaths/total
Protocol: as §1, §2, §3

[3] = system: Mouse Embryo Fibroblasts; test: Proliferation of uninfected mouse embryo fibroblasts (MEF); type: cell-based; conditions: Mus musculus, Fibroblast, 72 h, uninfected MEF, 3 days treatment, read-out: MEF No. of cells; for activity at 0.0062 µg/mL: dose 0.0062 μg/ml; for activity at 0.025 µg/mL: dose 0.0250 μg/ml; for activity at 0.1 µg/mL: dose 0.1 μg/ml; for activity at 0.4 µg/mL: dose 0.4 μg/ml
Protocol: (§4) Mouse embryo fibroblasts (MEF) were plated on 35 mm. Falcon plastic dishes and infected 24 hours later with Moloney Sarcoma Virus (MSV) in the presence of DEAE-dextran (25 μg./ml.). The samples were then treated for 3 days with different concentrations of the compounds of the invention. The number of foci of transformed cells was microscopically determined 5 days after the infection. Uninfected MEF were similarly treated and at the end of the experiment, the cells were counted in an haemocytometer. In all the experiments, the cells were incubated in a 5% CO2 incubator at 37° C.
(§5) For use in these tests the compounds were dissolved in distilled water or in 5% ethyl alcohol in distilled water and then diluted in culture medium.

[4] = as above; type: cell-based; conditions: mouse, mouse embryo fibroblasts; calculated on dose-effects lines; uninfected MEF, 3 days treatment; read-out: MEF proliferation ID 50 (Inhibiting Dose 50%)
Protocol: as §4, §5

[5] = system: Moloney Sarcoma Virus (MSV); test: Inhibition of MSV-M foci formation in mouse embryo fibroblasts; type: cell-based; conditions: Fibroblast, 120 h, 3 days treatment; for IC50: calculated on dose-effects lines, read-out: MSV-M foci ID 50 (Inhibiting Dose 50%); for activity at 0.0062 µg/mL: dose 0.0062 μg/ml; for activity at 0.0062 µg/mL / activity at 0.025 µg/mL / activity at 0.1 µg/mL / activity at 0.4 µg/mL: foci counted 5 days after infection, read-out: MSV-M No. of foci; for activity at 0.025 µg/mL: dose 0.0250 μg/ml; for activity at 0.1 µg/mL: dose 0.1 μg/ml; for activity at 0.4 µg/mL: dose 0.4 μg/ml
Protocol: as §4, §5
The results of these tests are reported in Table I in terms of ID50 values (Inhibiting Dose 50%), calculated on dose-effects lines.

[6] = 0.2 mg./kg. i.p. 1 day after tumor implant
[7] = 1 mg./kg. i.p. 1 day after tumor implant
[8] = 5 mg./kg. i.p. 1 day after tumor implant
[9] = 12.5 mg./kg. i.p. 1 day after tumor implant
[10] = 25 mg./kg. i.p. 1 day after tumor implant
[11] = 50 mg./kg. i.p. 1 day after tumor implant

| Compound | mortality ([1]; 0.2 mg./kg. i.p.) [%] | mortality ([1]; 1 mg./kg. i.p.) [%] | mortality ([1]; 5 mg./kg. i.p.) [%] | mortality ([1]; 12.5 mg./kg. i.p.) [%] | mortality ([1]; 25 mg./kg. i.p.) [%] | mortality ([1]; 50 mg./kg. i.p.) [%] | T/C (median survival time, % over untreated controls) [2, 6] [%] | % LTS [2, 6] [%] | LTS (Long Term Survivors after 60 days) [2, 6] | Toxic Deaths ([2]; 0.2 mg./kg. i.p.) | T/C (median survival time, % over untreated controls) [2, 7] [%] | % LTS [2, 7] [%] | LTS (Long Term Survivors after 60 days) [2, 7] | Toxic Deaths ([2]; 1 mg./kg. i.p.) | T/C (median survival time, % over untreated controls) [2, 8] [%] | % LTS [2, 8] [%] | LTS (Long Term Survivors after 60 days) [2, 8] | Toxic Deaths ([2]; 5 mg./kg. i.p.) | T/C (median survival time, % over untreated controls) [2, 9] [%] | % LTS [2, 9] [%] | other results |
| --- | --- | --- | --- | --- | --- | --- | --- | --- | --- | --- | --- | --- | --- | --- | --- | --- | --- | --- | --- | --- | --- |
| COc1cccc2c1C(=O)c1c(O)c3c(c(O)c1C2=O)C[C@@](O)(C(=O)CN1CCCCC1)C[C@@H]3O[C@H]1C[C@H](N)[C@H](O)[C@H](C)O1 [14-(N-piperidino)-daunomycin] | 0 | 0 | 0 | 0 | 0 | 40 | 103 | 0 | 0/10 | 0/10 | 100 | 0 | 0/10 | 0/10 | 140 | 20 | 2/10 | 0/10 | 200 | 20 | LTS (Long Term Survivors after 60 days) [2, 9]: 2/10; Toxic Deaths ([2]; 12.5 mg./kg. i.p.): 0/10; T/C (median survival time, % over untreated controls) [2, 10]: 218%; % LTS [2, 10]: 20%; LTS (Long Term Survivors after 60 days) [2, 10]: 2/10; Toxic Deaths ([2]; 25 mg./kg. i.p.): 0/10; T/C (median survival time, % over untreated controls) [2, 11]: 144%; % LTS [2, 11]: 20%; LTS (Long Term Survivors after 60 days) [2, 11]: 2/10; Toxic Deaths ([2]; 50 mg./kg. i.p.): 4/10; activity at 0.0062 µg/mL [3]: 87%; activity at 0.025 µg/mL [3]: 71%; activity at 0.1 µg/mL [3]: 58%; activity at 0.4 µg/mL [3]: 24%; IC50 at 72 h [4]: 0.1 µg/mL (≈ 0.164 µM); IC50 [5]: 0.08 µg/mL (≈ 0.131 µM); activity at 0.0062 µg/mL [5]: 100%; activity at 0.025 µg/mL [5]: 89%; activity at 0.1 µg/mL [5]: 42%; activity at 0.4 µg/mL [5]: 0% |
| COc1cccc2c1C(=O)c1c(O)c3c(c(O)c1C2=O)C[C@@](O)(C(=O)CN1CCN(CCO)CC1)C[C@@H]3O[C@H]1C[C@H](N)[C@H](O)[C@H](C)O1 [14-[N-(N'-hydroxyethyl)piperazino]-daunomycin] | 0 | 0 | 0 | 0 | 0 | 30 | 103 | 0 | 0/10 | 0/10 | 103 | 0 | 0/10 | 0/10 | 103 | 10 | 1/10 | 0/10 | 152 | 0 | LTS (Long Term Survivors after 60 days) [2, 9]: 0/10; Toxic Deaths ([2]; 12.5 mg./kg. i.p.): 0/10; T/C (median survival time, % over untreated controls) [2, 10]: 222%; % LTS [2, 10]: 10%; LTS (Long Term Survivors after 60 days) [2, 10]: 1/10; Toxic Deaths ([2]; 25 mg./kg. i.p.): 0/10; T/C (median survival time, % over untreated controls) [2, 11]: 152%; % LTS [2, 11]: 0%; LTS (Long Term Survivors after 60 days) [2, 11]: 0/10; Toxic Deaths ([2]; 50 mg./kg. i.p.): 3/10; activity at 0.0062 µg/mL [3]: 67%; activity at 0.025 µg/mL [3]: 64%; activity at 0.1 µg/mL [3]: 52%; activity at 0.4 µg/mL [3]: 31%; IC50 at 72 h [4]: 0.08 µg/mL (≈ 0.122 µM); IC50 [5]: 0.045 µg/mL (≈ 0.0686 µM); activity at 0.0062 µg/mL [5]: 71%; activity at 0.025 µg/mL [5]: 64%; activity at 0.1 µg/mL [5]: 43%; activity at 0.4 µg/mL [5]: 2% |
| COc1cccc2c1C(=O)c1c(O)c3c(c(O)c1C2=O)C[C@@](O)(C(=O)CN1CCN(C)CC1)C[C@@H]3O[C@H]1C[C@H](N)[C@H](O)[C@H](C)O1 [14-[N-(N'-methyl)-piperazino]-daunomycin] | 0 | 0 | 0 | 10 | 0 | 50 | 119 | 0 | 0/10 | 0/10 | 103 | 0 | 0/10 | 0/10 | 116 | 0 | 0/10 | 0/10 | 167 | 30 | LTS (Long Term Survivors after 60 days) [2, 9]: 3/10; Toxic Deaths ([2]; 12.5 mg./kg. i.p.): 1/10; T/C (median survival time, % over untreated controls) [2, 10]: 226%; % LTS [2, 10]: 30%; LTS (Long Term Survivors after 60 days) [2, 10]: 3/10; Toxic Deaths ([2]; 25 mg./kg. i.p.): 0/10; T/C (median survival time, % over untreated controls) [2, 11]: 130%; % LTS [2, 11]: 10%; LTS (Long Term Survivors after 60 days) [2, 11]: 1/10; Toxic Deaths ([2]; 50 mg./kg. i.p.): 5/10; activity at 0.0062 µg/mL [3]: 67%; activity at 0.025 µg/mL [3]: 64%; activity at 0.1 µg/mL [3]: 56%; activity at 0.4 µg/mL [3]: 23%; IC50 at 72 h [4]: 0.09 µg/mL (≈ 0.144 µM); IC50 [5]: 0.011 µg/mL (≈ 0.0176 µM); activity at 0.0062 µg/mL [5]: 60%; activity at 0.025 µg/mL [5]: 35%; activity at 0.1 µg/mL [5]: 19%; activity at 0.4 µg/mL [5]: 0% |
